Data from ChEMBL document CHEMBL1128922, “Thiophenesulfonamides as endothelin receptor antagonists” (Bioorg Med Chem Lett, 1996).

Columns and labels:
Endothelin-1 receptor = target: T1, Endothelin-1 receptor (Homo sapiens, UniProt P25101); test: Compound was tested for binding affinity against Endothelin A receptor
T1 sequence (P25101 whole entry): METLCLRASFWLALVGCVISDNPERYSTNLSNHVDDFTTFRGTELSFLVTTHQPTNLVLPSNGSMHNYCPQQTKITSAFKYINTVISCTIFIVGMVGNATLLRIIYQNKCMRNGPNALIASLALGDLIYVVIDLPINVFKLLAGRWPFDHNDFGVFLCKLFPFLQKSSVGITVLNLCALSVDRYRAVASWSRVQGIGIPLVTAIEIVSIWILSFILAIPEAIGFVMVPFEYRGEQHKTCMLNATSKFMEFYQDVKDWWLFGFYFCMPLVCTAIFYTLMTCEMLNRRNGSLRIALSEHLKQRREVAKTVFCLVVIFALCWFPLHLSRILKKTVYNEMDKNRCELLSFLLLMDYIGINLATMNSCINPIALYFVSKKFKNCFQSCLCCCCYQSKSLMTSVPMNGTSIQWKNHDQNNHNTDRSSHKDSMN

[1] = target: T2, Endothelin receptor type B (Homo sapiens, UniProt P24530); test: Compound was tested for binding affinity against Endothelin B receptor
T2 sequence (P24530 whole entry): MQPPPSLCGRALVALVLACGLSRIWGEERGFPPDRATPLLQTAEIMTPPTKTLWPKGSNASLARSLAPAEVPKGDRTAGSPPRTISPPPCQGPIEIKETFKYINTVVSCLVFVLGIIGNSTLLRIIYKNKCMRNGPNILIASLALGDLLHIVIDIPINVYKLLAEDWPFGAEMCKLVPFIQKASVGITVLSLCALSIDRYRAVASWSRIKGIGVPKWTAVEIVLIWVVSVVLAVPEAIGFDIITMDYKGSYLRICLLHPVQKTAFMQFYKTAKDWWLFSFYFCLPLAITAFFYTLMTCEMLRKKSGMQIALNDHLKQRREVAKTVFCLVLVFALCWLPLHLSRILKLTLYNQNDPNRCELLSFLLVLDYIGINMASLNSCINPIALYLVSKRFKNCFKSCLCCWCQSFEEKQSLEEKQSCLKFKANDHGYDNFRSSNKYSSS

Row | Compound | IC50 (Endothelin-1 receptor) [nM] | IC50 [1] [nM]
1 | Cc1noc(NS(=O)(=O)c2ccsc2)c1Br | 2750 | > 100000
2 | Cc1noc(NS(=O)(=O)c2ccsc2-c2ccccc2)c1Br | 603 | 74100
3 | Cc1ccccc1-c1ccsc1S(=O)(=O)Nc1onc(C)c1Br | 306 | > 100000
4 | Cc1cc(CCC(C)C)ccc1-c1ccsc1S(=O)(=O)Nc1onc(C)c1Br | 115 | 2450
5 | Cc1noc(NS(=O)(=O)c2sccc2-c2ccc(CCC(C)C)cc2)c1Br | 182 | 
6 | CCCc1ccc(-c2ccsc2S(=O)(=O)Nc2onc(C)c2Br)c(C)c1 | 42.9 | 2910
7 | Cc1noc(NS(=O)(=O)c2sccc2-c2ccc(CC(C)C)cc2)c1Br |  | 2900
8 | Cc1noc(NS(=O)(=O)c2cc(-c3ccccc3)cs2)c1Br | 3390 | 13500
9 | COc1cccc(-c2ccsc2S(=O)(=O)Nc2onc(C)c2Br)c1 | 1320 | 56300
10 | CCCc1ccc(-c2ccsc2S(=O)(=O)Nc2onc(C)c2Br)cc1 |  | 8160
11 | Cc1cc(CC(C)C)ccc1-c1ccsc1S(=O)(=O)Nc1onc(C)c1Br | 47.9 | 1510
12 | Cc1noc(NS(=O)(=O)c2ccccc2)c1Br | 2510 | > 100000
13 | Cc1noc(NS(=O)(=O)c2ccccc2-c2ccccc2)c1Br | 16.2 | > 100000
14 | Cc1noc(NS(=O)(=O)c2sccc2-c2ccccc2)c1Br | 819 | 64400
15 | Cc1noc(NS(=O)(=O)c2sccc2Oc2ccccc2)c1Br | 1450 | 35500
16 | COc1ccc(-c2ccsc2S(=O)(=O)Nc2onc(C)c2Br)cc1 | 334 | 62100
17 | Cc1ccc(-c2ccsc2S(=O)(=O)Nc2onc(C)c2Br)cc1 | 315 | 95500
18 | Cc1noc(NS(=O)(=O)c2cccs2)c1Br | 1910 | > 100000
19 | Cc1noc(NS(=O)(=O)c2sccc2Cc2ccccc2)c1Br | 2600 | 39800
